Laboratory results published in paper PMC11859198, “Identification of Furin Protease Small-Molecule Inhibitor with a 1,3-Thiazol-2-ylaminosulfonyl Scaffold” (Pharmaceuticals, 2025).

Molecular target: furin (Homo sapiens, UniProt P09958)
Experiment: fluorogenic furin protease assay (BPS Bioscience kit), IC50 in triplicate
Assay type: biochemical
Conditions: read-out: Biological Activity ^2 [IC50; μM] ^3 or % Inhibition ^4

Chain of furin (P09958 108-794): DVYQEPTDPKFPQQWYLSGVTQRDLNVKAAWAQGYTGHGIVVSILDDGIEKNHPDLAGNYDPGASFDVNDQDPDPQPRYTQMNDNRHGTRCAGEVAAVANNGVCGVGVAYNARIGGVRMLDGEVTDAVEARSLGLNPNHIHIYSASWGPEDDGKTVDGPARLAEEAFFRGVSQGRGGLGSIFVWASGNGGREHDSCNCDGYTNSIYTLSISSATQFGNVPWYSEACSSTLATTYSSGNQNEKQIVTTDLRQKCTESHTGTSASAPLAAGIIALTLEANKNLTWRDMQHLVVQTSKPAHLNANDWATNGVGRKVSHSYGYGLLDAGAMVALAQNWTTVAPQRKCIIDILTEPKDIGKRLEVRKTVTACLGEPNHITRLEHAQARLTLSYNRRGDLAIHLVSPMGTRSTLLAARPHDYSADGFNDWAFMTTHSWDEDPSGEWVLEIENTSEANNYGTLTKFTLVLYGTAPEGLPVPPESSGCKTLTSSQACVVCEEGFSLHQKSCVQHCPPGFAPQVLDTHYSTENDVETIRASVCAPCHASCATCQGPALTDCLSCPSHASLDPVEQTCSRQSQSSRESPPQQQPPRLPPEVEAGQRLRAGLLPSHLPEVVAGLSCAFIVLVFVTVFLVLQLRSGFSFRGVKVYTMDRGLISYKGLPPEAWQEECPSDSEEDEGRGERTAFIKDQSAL

In the case of COc1ccccc1/C=C1/SC(=S)N(CCC(=O)Nc2ccc(S(=O)(=O)Nc3nccs3)cc2)C1=O [compound 4, N-[4-(1,3-thiazol-2-ylaminosulfonyl)phenyl]-3-{(E)-5-[(2-methoxyphenyl)methylene]-4-oxo-2-thioxo-1,3-thiazolidin-3-yl}propionamide], the IC50 is reported as 17.6 ± 2.29 µM.
